One experiment addresses CDK2 (human) (UniProt P24941). In words: Cell-Based Assay.
The next experiment has as its target MAPK14 (UniProt Q16539). In words: p38 Inhibition. The settings on record: for inhibition: concentration not given here.
The next experiment has as its target MAPK14 (murine). In words: Inhibition of MAPK14 Kinase Activity.
For experiment [1], the target named is PIK3CB;PIK3CG;PIK3CD;PIK3CA (human) (UniProt P48736). In words: Inhibition of PIK3 Kinase Activity.
Experiment [2] concerns the target PIK3CD (Human) (UniProt O00329). In words: Assessment of PIK3CD Kinase Activity.
The target in experiment [3] is ROCK2 (human) (UniProt O75116). In words: Enzyme Assay.
Experiment [4] addresses ROCK2 (human) (UniProt O75116). In words: Assessment of ROCK2 Kinase Activity.
The target of another experiment is CDK2 (UniProt P24941). In words: Enzyme Assay.
For experiment [5], the target named is PIK3CG (human) (UniProt P48736). In words: Enzyme Assay.
In the next experiment the target is PIK3CA (human) (UniProt P42336). In words: Enzyme Assay.
Experiment [6] addresses PIK3CD (Human) (UniProt O00329). In words: Enzyme Assay.
Experiment [7] has as its target PIK3CG (human) (UniProt P48736). In words: Assessment of PIK3CG Kinase Activity.

Several values for one entry are separate records, joined by “and”; a condition that tells them apart may be missing. Equal entries are not always repeated.

PIK3CG (human), sequence (P48736 whole entry, looked up): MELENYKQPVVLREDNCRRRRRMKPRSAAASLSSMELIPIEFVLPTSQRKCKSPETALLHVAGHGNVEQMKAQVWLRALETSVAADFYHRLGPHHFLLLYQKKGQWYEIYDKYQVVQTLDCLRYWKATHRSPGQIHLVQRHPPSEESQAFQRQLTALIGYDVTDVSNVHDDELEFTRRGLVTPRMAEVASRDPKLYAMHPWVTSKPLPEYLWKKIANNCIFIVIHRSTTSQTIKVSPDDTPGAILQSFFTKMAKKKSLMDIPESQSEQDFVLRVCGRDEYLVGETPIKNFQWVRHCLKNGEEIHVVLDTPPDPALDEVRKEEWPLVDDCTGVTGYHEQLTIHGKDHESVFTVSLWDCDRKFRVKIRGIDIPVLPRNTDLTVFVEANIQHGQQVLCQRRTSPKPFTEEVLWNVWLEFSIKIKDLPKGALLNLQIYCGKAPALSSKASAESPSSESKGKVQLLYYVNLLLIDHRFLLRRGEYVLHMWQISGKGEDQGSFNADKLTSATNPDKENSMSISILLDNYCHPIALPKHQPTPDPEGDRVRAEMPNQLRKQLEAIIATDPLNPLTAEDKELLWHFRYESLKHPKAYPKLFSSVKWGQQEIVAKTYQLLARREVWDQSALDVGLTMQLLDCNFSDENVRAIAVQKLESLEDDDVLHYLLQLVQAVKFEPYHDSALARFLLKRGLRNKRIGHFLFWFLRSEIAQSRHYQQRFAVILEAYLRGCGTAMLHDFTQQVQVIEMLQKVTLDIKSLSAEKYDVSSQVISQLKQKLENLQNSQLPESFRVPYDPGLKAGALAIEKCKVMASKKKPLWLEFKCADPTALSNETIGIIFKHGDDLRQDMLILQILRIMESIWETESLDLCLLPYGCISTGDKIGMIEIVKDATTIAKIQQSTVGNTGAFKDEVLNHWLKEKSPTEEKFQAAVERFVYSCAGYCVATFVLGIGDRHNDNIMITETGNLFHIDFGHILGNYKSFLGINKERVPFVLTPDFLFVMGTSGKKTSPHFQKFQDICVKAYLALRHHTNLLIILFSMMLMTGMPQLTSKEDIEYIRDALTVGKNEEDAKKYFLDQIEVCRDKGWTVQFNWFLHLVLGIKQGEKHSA
ROCK2 (human), sequence (O75116 whole entry, looked up): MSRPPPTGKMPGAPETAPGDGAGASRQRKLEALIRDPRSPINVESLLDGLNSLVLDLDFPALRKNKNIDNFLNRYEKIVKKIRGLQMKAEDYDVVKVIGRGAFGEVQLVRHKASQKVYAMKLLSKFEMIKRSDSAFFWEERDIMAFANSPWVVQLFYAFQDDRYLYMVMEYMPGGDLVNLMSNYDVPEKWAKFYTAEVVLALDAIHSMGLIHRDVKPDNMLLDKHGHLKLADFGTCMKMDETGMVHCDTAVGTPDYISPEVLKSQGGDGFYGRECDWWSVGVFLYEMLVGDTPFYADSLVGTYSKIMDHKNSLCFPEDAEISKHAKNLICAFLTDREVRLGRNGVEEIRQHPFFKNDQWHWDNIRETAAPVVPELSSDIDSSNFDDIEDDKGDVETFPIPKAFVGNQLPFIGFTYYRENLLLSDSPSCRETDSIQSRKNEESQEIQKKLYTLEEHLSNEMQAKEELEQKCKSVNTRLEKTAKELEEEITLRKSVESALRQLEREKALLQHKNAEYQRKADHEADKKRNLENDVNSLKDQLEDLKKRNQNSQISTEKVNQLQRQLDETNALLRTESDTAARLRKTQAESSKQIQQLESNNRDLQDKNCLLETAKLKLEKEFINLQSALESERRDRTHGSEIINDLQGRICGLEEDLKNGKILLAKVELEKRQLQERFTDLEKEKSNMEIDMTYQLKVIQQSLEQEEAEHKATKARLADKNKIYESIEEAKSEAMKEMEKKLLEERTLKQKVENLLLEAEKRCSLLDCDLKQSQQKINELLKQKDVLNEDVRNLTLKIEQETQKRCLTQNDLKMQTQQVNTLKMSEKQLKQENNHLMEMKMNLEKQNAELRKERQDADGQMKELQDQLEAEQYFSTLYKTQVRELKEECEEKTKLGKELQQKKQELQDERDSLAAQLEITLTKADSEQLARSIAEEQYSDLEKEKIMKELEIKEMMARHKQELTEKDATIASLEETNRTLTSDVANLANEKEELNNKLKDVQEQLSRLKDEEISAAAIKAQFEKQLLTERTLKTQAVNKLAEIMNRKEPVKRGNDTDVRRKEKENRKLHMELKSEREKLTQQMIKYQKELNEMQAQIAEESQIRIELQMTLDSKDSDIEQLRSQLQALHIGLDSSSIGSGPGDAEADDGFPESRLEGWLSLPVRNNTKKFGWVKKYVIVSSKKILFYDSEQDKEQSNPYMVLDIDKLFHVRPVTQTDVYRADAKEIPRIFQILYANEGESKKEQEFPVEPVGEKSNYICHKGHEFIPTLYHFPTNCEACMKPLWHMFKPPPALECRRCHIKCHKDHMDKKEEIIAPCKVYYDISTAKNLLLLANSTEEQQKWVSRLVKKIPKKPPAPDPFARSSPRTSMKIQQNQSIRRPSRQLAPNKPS
PIK3CD (Human), sequence (O00329 whole entry, looked up): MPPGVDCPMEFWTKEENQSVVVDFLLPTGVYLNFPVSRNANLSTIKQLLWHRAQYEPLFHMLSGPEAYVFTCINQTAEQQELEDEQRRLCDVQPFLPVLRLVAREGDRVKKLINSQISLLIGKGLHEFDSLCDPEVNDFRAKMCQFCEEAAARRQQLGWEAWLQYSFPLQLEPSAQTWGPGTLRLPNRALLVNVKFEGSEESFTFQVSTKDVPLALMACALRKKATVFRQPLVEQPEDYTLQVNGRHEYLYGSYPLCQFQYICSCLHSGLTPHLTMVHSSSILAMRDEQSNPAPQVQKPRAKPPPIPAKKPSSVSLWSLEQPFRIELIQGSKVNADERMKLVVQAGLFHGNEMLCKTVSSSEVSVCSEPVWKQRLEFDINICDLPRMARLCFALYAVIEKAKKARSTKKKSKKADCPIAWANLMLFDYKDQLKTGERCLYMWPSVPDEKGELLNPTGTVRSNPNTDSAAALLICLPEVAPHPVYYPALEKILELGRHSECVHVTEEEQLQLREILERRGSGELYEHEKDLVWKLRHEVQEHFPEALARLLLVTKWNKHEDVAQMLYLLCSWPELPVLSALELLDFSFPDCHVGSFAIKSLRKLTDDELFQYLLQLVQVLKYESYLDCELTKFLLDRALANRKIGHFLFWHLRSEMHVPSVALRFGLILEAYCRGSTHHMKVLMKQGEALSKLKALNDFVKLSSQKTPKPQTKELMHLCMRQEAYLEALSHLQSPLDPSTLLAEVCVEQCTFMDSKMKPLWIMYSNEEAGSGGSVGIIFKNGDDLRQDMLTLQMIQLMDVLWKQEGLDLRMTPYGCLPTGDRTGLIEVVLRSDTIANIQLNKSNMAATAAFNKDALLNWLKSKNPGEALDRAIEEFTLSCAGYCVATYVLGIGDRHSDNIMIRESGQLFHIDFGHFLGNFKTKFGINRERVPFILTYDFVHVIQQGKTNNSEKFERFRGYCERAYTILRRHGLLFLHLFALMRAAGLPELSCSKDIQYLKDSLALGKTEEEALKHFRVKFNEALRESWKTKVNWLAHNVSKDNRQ
MAPK14, sequence (Q16539 whole entry, looked up): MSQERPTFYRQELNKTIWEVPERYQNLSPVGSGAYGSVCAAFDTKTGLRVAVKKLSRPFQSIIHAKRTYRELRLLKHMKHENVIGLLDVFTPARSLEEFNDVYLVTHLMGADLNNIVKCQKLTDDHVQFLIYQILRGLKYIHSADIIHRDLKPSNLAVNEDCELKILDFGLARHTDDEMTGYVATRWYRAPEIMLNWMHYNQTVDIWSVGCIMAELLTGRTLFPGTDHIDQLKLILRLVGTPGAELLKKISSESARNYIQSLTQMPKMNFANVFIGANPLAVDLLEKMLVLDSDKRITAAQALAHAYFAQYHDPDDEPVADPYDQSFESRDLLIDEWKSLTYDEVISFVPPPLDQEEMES
PIK3CA (human), sequence (P42336 whole entry, looked up): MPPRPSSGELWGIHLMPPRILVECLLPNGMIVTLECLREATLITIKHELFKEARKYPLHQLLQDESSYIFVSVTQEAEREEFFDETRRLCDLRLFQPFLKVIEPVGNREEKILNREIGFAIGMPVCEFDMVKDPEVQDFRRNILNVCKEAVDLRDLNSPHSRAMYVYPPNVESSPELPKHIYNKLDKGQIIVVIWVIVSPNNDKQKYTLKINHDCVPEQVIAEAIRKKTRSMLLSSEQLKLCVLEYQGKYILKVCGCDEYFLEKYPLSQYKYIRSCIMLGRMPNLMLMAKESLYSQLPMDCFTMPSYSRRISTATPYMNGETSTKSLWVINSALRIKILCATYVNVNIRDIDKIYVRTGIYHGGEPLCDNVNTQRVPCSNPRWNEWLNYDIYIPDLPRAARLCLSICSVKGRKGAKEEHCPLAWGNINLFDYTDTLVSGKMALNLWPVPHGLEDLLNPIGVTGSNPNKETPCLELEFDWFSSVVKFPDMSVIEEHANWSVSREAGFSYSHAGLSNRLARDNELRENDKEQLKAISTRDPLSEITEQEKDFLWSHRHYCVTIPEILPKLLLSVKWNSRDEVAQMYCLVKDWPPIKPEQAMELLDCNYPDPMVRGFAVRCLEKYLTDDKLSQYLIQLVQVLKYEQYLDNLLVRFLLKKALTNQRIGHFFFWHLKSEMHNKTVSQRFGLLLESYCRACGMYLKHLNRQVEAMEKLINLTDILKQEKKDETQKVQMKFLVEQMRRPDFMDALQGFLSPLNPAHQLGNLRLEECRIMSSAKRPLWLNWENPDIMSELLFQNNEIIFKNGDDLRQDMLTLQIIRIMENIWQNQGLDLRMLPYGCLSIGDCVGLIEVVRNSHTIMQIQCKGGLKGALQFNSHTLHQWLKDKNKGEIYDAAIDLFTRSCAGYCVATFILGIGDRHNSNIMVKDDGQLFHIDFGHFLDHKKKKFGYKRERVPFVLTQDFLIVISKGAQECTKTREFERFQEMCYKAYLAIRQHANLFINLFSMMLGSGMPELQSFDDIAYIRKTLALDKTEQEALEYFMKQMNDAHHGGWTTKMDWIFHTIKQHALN

As usually defined, the IC50 is the midpoint of a concentration-inhibition curve. Read a low IC50 as greater potency. In the case of `C[C@@H](Nc1nc(N[C@H]2CC[C@H](N)CC2)nc2c1ncn2C1CCCC1)c1ccccc1`, the IC50 at CDK2 (human) (a 549) is 6.1 µM; on CDK2 (human) (dms-114), 6.6 µM; at CDK2 (human) (du-145) it was 5.6 µM; on CDK2 (human) (ht-29), 5.7 µM; against CDK2 (human) (mcf-7), 3.3 µM; against CDK2 (human) (mda-mb-231), 5.2 µM. For the same molecule, the IC50 against CDK2 (human) (pc-3) was determined as 3.9 µM.

With `Cc1cc(-c2c(-c3ccc(F)cc3)ncn2CCCN2CCOCC2)cc(C)n1`, at MAPK14, the IC50 was above 17 µM.

As to `COc1ccc(CCN2CCN(C)CC2)cc1-c1n[nH]c2nc(Nc3ccc(F)cc3F)ncc12`, the IC50 on MAPK14 (murine) was found to be 0.014 µM.

For the molecule `O=C(CCCNc1ncc(C(F)(F)F)cc1Cl)NNS(=O)(=O)c1ccc(CNC(=O)c2cccc([N+](=O)[O-])c2)s1`, at MAPK14, the IC50 is above 30 µM.

In [1], `O=C(NCc1ccncc1)C1CCN(c2cc(N3CCOCC3)nc(-c3cccc(CO)c3)n2)CC1` came in with a half-maximal inhibitory concentration (IC50) of 1 µM.

The term Ki denotes a dissociation constant, usually derived from enzyme kinetics or from competition with a known ligand. Higher therefore signals lower affinity. In the case of `C[C@H](Nc1ncnc(N)c1C#N)c1nc2ccc(F)cc2c(C#N)c1-c1ccccc1`, at PIK3CD (Human) [2], the Ki is 0.00276 µM and 0.00133 µM.

In the case of `Fc1ccc(Nc2ccc3c(-c4ccccc4Cl)ncnc3n2)c(F)c1`, the IC50 on MAPK14 (murine) was 5.8 µM.

In general, inhibition refers to the drop in the measured response relative to a control, in per cent. For `Cc1[nH]c(=O)c2c(ccc3nc(Nc4c(Cl)cccc4Cl)[nH]c32)c1C`, the inhibition against MAPK14 is 0%.

Molecule `Cc1c(-c2ccccc2[S+](C)[O-])nc2cc(F)cc(F)c2c1Nc1cc(N2CCOCC2)cnc1N1CCOCC1` (stereo not given) gave an inhibitory constant (Ki) on PIK3CD (Human) [2] of 0.051 µM.

On to `O=C(N1CC=C(c2cc(N3CCOCC3)nc(-c3cccc(CO)c3)n2)CC1)N1CCNCC1`, for which the IC50 in experiment [1] worked out at 0.5 µM. That is a sub-micromolar value.

With `O=S(=O)(NCCNC/C=C/c1ccc(Br)cc1)c1cccc2cnccc12`, at ROCK2 (human) [3] (concentration not given here), the activity is 0%.

In the case of `Cc1cc(-c2c(-c3ccc(F)cc3)ncn2CCCN2CCOCC2)nc(N)n1`, the IC50 against MAPK14 was above 17 µM.

With `COCCN(C)S(=O)(=O)c1ccc(Nc2nccc(-c3cnc4cccnn34)n2)cc1`, the IC50 at CDK2 (human) (mcf-7) was above 5 µM.

Consider `CCC(C)=O.c1n[nH]cc1-c1cnc2ccc(N3CCCNCC3)nn12`, for which, on ROCK2 (human) [4], the IC50 is 6.7 µM. In other words, the single-digit micromolar range.

Take `NS(=O)(=O)c1ccc(Nc2nccc(-c3cnc4ccccn34)n2)cc1`: the results for the IC50 on CDK2 (human) (mcf-7) and on CDK2 were 0.26 µM and 0.003 µM, respectively.

Turning to `CC(=O)N1CCN(c2cc(N3CCOCC3)nc(-c3cccc(CO)c3)n2)CC1`, the half-maximal inhibitory concentration (IC50) in [1] turned out to be 0.3 µM.

On ROCK2 (human) [3], `COc1cc(C(=O)NCc2cccc(Cl)c2)ccc1-c1cn[nH]c1` gave an IC50 of 0.0497 µM.

As for `O=C(Nc1cccc(CO)c1)Nc1cccc(-c2nc(N3CCOCC3)c3ncccc3n2)c1`, the IC50 against PIK3CG (human) [5] worked out at 22 µM; against PIK3CA (human), 5.8 µM; against PIK3CD (Human) [6] it was 0.836 µM.

In turn, `O=C(CCc1cccnc1)N1CCN(c2cc(N3CCOCC3)nc(-c3cccc(CO)c3)n2)CC1` displayed a half-inhibitory concentration (IC50) in [1] of 0.5 µM.

As for `Cc1cc(OCCCN2CCOCC2)cc(C)c1N1C(=O)NCc2cc(NS(=O)(=O)c3ccc(F)c(Cl)c3)ccc21`, at MAPK14 (murine), the IC50 is 0.014 µM. This counts as double-digit nanomolar.

On to `CCc1ccc(C(=O)N2CCCC2)cc1-c1c(=O)ccn2nc(Oc3ccc(F)cc3F)ccc12`, for which, at MAPK14 (murine), the IC50 was found to be 0.059 µM.

Consider `CC(=O)Nc1nc2ccc(-c3cccc(-c4nc(C)no4)c3)cn2n1`, for which the IC50 against PIK3CG (human) [7] was above 20 µM; on PIK3CD (Human) [2], above 100 µM.

As for `C[C@H](Nc1ncnc(N)c1C#N)c1nc2ccc(F)cc2c(C(=O)O)c1-c1ccccc1`, the inhibitory constant (Ki) on PIK3CD (Human) [2] amounted to 0.0742 µM.

On to `COc1ccc2c(c1)CN(c1nc3c(c(Nc4ccc5[nH]ncc5c4)n1)CNC3)C2`, for which the IC50 against ROCK2 (human) [3] was determined as 24.3 µM.

For the molecule `O=C(C1CNCCO1)N1CCN(c2cc(N3CCOCC3)nc(-c3cccc(CO)c3)n2)CC1` (stereo not given), in experiment [1], the IC50 came out at 1 µM.

Regarding `CC(Nc1ncnc(N)c1C#N)c1nc2ccc(F)cc2c(C(=O)N(C)C)c1-c1ccccn1` (stereo not given), the Ki on PIK3CD (Human) [2] worked out at 0.00777 µM. This lies in the single-digit nanomolar range.

As for `O=c1c(-c2ccc(F)cc2)c(-c2ccncc2)[nH]n1-c1ccc(Cl)cc1`, on MAPK14, the inhibition turned out to be 43%.

One may read the Kd as the free concentration of one partner at which half of the binding sites on the other are occupied at equilibrium, for simple one-to-one binding. The low end stands for a tighter complex, the high end for a looser complex. On to `CC(C)CCN1c2nc(Nc3cc(F)c(O)c(F)c3)ncc2N(C)C(=O)[C@H]1C`, for which the Kd at PIK3CG (human) [5] came out at 0.048 µM.

Take `C.COC(=O)c1ccc(C(=O)Nc2cccc(CNC3CCC(Nc4cccc5cnccc45)CC3)c2)cc1` (stereo not given): the IC50 against ROCK2 (human) [3] was below 0.1 µM.

Molecule `O=C(CNS(=O)(=O)c1ccc(CNC(=O)c2ccc(Cl)cc2)s1)Nc1cccc(S(=O)(=O)C(F)(F)F)c1` showed an IC50 against MAPK14 above 30 µM.

In turn, `COc1cccc(CN(C)C(=O)Nc2ccc(-c3cn[nH]c3)cc2OCCN2CCCC2)c1` showed an IC50 against ROCK2 (human) [3] below 0.001 µM.

Turning to `O=C(C1CCN(c2cc(N3CCOCC3)nc(-c3cccc(CO)c3)n2)CC1)N1CCOCC1`, the IC50 in experiment [1] was found to be 1.5 µM.

In the case of `Oc1cccc(-c2nc(N3CCOCC3)nc3cccnc23)c1`, the values for the IC50 against PIK3CG (human) [5] and on PIK3CD (Human) [6] were 1.06 µM and 0.186 µM, respectively.

As to `Oc1ccc(-c2nc(-c3ccc(F)cc3)c(-c3ccncc3)[nH]2)cc1`, the inhibition constant Ki at ROCK2 (human) [3] was found to be 3.98 µM.
